As to `C=CS(=O)(=O)NCc1ccc(OC)cc1`, the melting point (commonly the temperature, or range, at which the solid turns liquid) fell in the range of 68 to 69 °C.

`Cc1[nH]c2ccc(CCO)cc2c1C(=O)OCc1ccccc1` registered a melting point of 170 to 172 °C.

On to `O=C1CC(Br)C(=O)N1c1ccc(F)cc1` (centres undefined), for which the melting point amounted to 154 °C.

In the case of `CC(C)(C)C(=O)Oc1ccc(CCNc2nc(N)n3nc(-c4ccco4)nc3n2)cc1`, the melting point lay in the range of 208 to 210 °C.

On to `Cc1noc(NS(=O)(=O)c2ccsc2C(=O)N(C)c2ccccc2)c1Br`, for which the melting point is 51 to 55 °C.

For the molecule `Cc1nc2sc(Cl)cn2c(=O)c1O`, the melting point was 214 to 217 °C.

`Cc1c(F)c(=O)n(-c2cc(C(=O)OC(C)C)c(Cl)cc2F)c(=O)n1C` returned a melting point of 112 to 115 °C.

`CN(C)CCN(CCC12CC3CC(CC(C3)C1)C2)C(=O)NCCCc1ccncc1` showed a melting point of 104 to 106 °C.

In the case of `Oc1c(CCl)cc(Cl)cc1CCl`, the melting point was 88 °C.

`CCCCN(CCCC)CCN=c1sc2ccccc2s1`: the melting point was 122 to 123 °C.

As for `COC(=O)C(=O)c1ccc(OC/C=C/c2ccc(F)cc2)cc1`, the melting point was 84 to 85 °C.

For `CN(C)CC1CNc2cc(Cl)ccc2C1` (centres undefined), the melting point is 107 to 110 °C.

`COc1ccc2c(c1)C(=O)CC1C2C(OC(C)=O)CC2(C)C(OC(C)=O)CCC12` (centres undefined) registered a melting point of 199 to 200 °C.

As to `O=C1C(=O)c2ccccc2C2=C1SCC1(CCN(C(=O)c3cccnc3)CC1)O2`, the melting point lay in the range of 218 to 220 °C.

`CC(=O)Oc1c2cc(C(F)(F)F)c(C(F)(F)F)cc2c(OC(C)=O)c2cc3ccccc3cc12` came in with a melting point of 149 to 153 °C.

Molecule `Cc1sccc1C(=O)O` had a melting point of 71 to 73 °C.

`COc1nc(Oc2ccccc2C(=O)O)nc(N(C)C)n1`: the melting point lay within 148 to 149 °C.

On to `CC(=S)Nc1ccc(C(=O)O)cc1`, for which the melting point worked out at 220 °C.

In the case of `COc1cc2ncnc(Nc3cccc(Br)c3)c2cc1OC(C)=O`, the melting point was 238 °C.

As for `COc1ccc(S(=O)(=O)C2(C(=O)O)CCN(CCOc3ccccc3)CC2)cc1`, the melting point is 235 °C.

`CCOCCOc1ccc(CCNC(=O)/C=C/c2cccs2)cc1S(=O)(=O)NC(=S)NC` showed a melting point of 51 °C.

`Cc1cc(C(=S)CN=[N+]=[N-])ccc1O`: the melting point was 124 to 129 °C.

Turning to `CC1(CC(=O)O)SCCC2=C1Cc1ccccc12` (centres undefined), the melting point was 119 to 121 °C.

`Cc1cccc(Nc2cc(Nc3cccc(OCC(O)CN(C)C)c3)ncn2)c1` (centres undefined): the melting point was 120 to 122 °C.

For `Nc1nc(N)c2ncn(C(O)C3C=CCC3)c2n1` (centres undefined), the melting point lay in the range of 152 to 155 °C.

Take `N#CC(C(=O)C(=O)C(C#N)c1ccc(Cl)cc1)c1ccc(Cl)cc1` (centres undefined): the melting point was 255 °C.

Take `CCc1nc(-c2cc3cc(OCCNC[C@H](O)COc4ccccc4)ccc3o2)no1`: the melting point fell in the range of 97 to 98 °C.

Consider `Cc1ccc(S(=O)(=O)NC(C)C(=O)Cl)cc1` (centres undefined), for which the melting point lay in the range of 101 to 102 °C.

For the molecule `CCc1noc(-c2cn(-c3ccc4c(c3)OCO4)cn2)n1`, the melting point was 173 to 174 °C.

Molecule `O=C(N[C@@H]1C=CC[C@H]1O)OCC(Cl)(Cl)Cl` displayed a melting point of 82 to 84 °C.

Take `Nc1c(C(=O)O)ccc(F)c1F`: the melting point fell in the range of 207 to 208 °C.

`O=C1CC(c2c(-c3ccc[nH]3)[nH]c3ccccc23)C(=O)N1` (centres undefined) showed a melting point of 67 to 69 °C.

On to `Cc1c(C(=O)Nc2cc(Cl)c(N3CCC(N4CCOCC4)CC3)c(Cl)c2)cnn1-c1ccc(Cl)cc1`, for which the melting point is 246 to 248 °C.

Regarding `COc1ccc(CNc2c(C)c(C)c3oc(C)c(-c4ccc(F)cc4)c3c2C)cc1`, the melting point lay within 100 to 102 °C.

In the case of `O=c1c(N2CCCNCC2)nc2ccccc2n1-c1cccc(F)c1`, the melting point lay in the range of 128 to 129 °C.

For the molecule `COc1c(Cl)ccc(-c2cc(N)c(Cl)c(CNCC(=O)O)n2)c1F`, the melting point is 189 to 191 °C.

Regarding `O=C1CCC(N2Cc3c(OCc4ccc(CN5CCC(c6cccc(F)c6)CC5)cc4)cccc3C2=O)C(=O)N1` (centres undefined), the melting point lay in the range of 200 to 202 °C.

With `CCN(CCO[N+](=O)[O-])C(=O)COC(=O)[C@@H](C)c1ccc2cc(OC)ccc2c1`, the melting point is 60 to 61 °C.

As to `CN=c1[nH]c(-c2cc(C)c(OCCCc3cc(C)no3)c(C)c2)no1`, the melting point lay within 126 to 127 °C.

Molecule `Cn1ccc(CNC(=O)c2ccnc(N3CCN(Cc4ccc(F)cc4)C3=O)c2)n1` gave a melting point of 79 to 81 °C.

With `Nc1ccc(NCCc2ccccc2)c(S(=O)(=O)CCO)c1`, the melting point was 197 °C.

The molecule `COc1ccc2cc(-c3nn(C(C)c4oc5ccccc5c(=O)c4-c4cccc(F)c4)c4ncnc(N)c34)ccc2c1` (centres undefined) had a melting point of 285 to 287 °C.

Turning to `Nc1nc(=O)n(C(=O)NC2CCCC2)cc1F`, the melting point was in the range of 294 to 297 °C.

The molecule `Cc1ccc(C(O)(c2ccc(C)cc2)C2CCNCC2)cc1` showed a melting point of 150 to 153 °C.

For the molecule `CCCCc1c(-c2cc3ccccc3o2)nc(N)nc1-c1cc2ccccc2o1`, the melting point is 142 to 144 °C.

As to `O=C1c2cccc(Br)c2C(=O)N1c1ccc(OC(F)(F)F)cc1`, the melting point fell in the range of 117 to 118 °C.

In the case of `O=C1C2=C(C(=O)c3ccccc31)C(=O)C1CC(Cl)=CCC1C2=O` (centres undefined), the melting point lay within 221 to 222 °C.

As for `COc1ccc(OC)c(S(=O)(=O)n2c(CCC(=O)O)cc3nc(Cl)ccc32)c1`, the melting point was in the range of 204 to 209 °C.

`Nc1cc(-n2cncn2)ccc1[N+](=O)[O-]` came in with a melting point of 259 to 261 °C.

`c1ccc(-n2ncc3c2-c2ccccc2C3)cc1`: the melting point lay within 119 to 120 °C.

In turn, `O=C(NCc1ccccc1)c1sc2ccccc2c1Br` returned a melting point of 115 to 117 °C.

On to `Oc1c(C2CCCC2)cc(C2CCCC2)cc1C1CCCC1`, for which the melting point amounted to 104 °C.

`COc1cc(C(C)=O)ccc1OCCCCCN1CCC(C(O)(c2ccc(F)cc2)c2ccc(F)cc2)CC1` gave a melting point of 118 °C.

In turn, `COc1c(F)cc2c(c1-c1ccc(C[C@H](NC(=O)c3c(Cl)cccc3Cl)C(=O)O)cc1)OCO2` displayed a melting point of 198 to 199 °C.

`CCOC(=O)c1sc(-c2ccc(C#N)cc2)nc1CBr` had a melting point of 156 °C.

As to `CCC(=O)N1CCN(C(=O)OC2C3=C(SCC(OC)CS3)C(=O)N2c2ccc(Cl)cn2)CC1` (centres undefined), the melting point amounted to 160 °C.

In turn, `Cc1ccc(Nc2c(N)cc(C(=O)O)cc2S(N)(=O)=O)cc1` showed a melting point of 249 to 252 °C.

`O=c1oc(-c2ccccc2)cc(O)c1SCc1cccc(Oc2ccccc2)c1`: the melting point was in the range of 131 to 133 °C.

`Cn1c(=O)c2c(ncn2CCCCC(=O)CBr)n(C)c1=O` gave a melting point of 106 to 109 °C.

In turn, `CCn1nc(C(F)(F)F)c(CS(=O)(=O)C2=NOC(C)(CCl)C2)c1F` (centres undefined) came in with a melting point of 73 to 75 °C.

Consider `Cc1cccc(Cl)c1C(=O)N[C@@H](Cc1ccc(-c2cn(C)c(=O)n(C)c2=O)cc1)C(=O)O`, for which the melting point was 234 to 236 °C.

The molecule `N#Cc1cnc2c(Br)csc2c1Cl` yielded a melting point of 176 to 178 °C.

`CN1CCOc2cc(S(=O)(=O)n3c(COC(C)(C)C(=O)O)cc4nc(Cl)ccc43)ccc21` gave a melting point of 229 °C.

For `COc1cc(-c2nc(-c3ccc(N(C)C)cc3)c(-c3ccc(N(C)C)cc3)[nH]2)cc(OC)c1O`, the melting point was 258 to 260 °C.

For the origin of these results see a melting point compilation (Tetko et al.; mined from patent text by program, amines drawn as free bases though some values may be those of a salt).
